Experimental data taken from ChEMBL document CHEMBL5331145, “Discovery of a Novel Bifunctional Steroid Analog, YXG-158, as an Androgen Receptor Degrader and CYP17A1 Inhibitor for the Treatment of Enzalutamide-Resistant Prostate Cancer” (J Med Chem, 2023).

Tests used:
Cytochrome P450 2D6 = Cytochrome P450 2D6 (Homo sapiens, UniProt P10635); assay: Inhibition of CYP2D6 (unknown origin); type: ADME
[1] = Mutagenicity in Salmonella typhimurium TA100 in absence of liver S9 fraction by AMES test; type: toxicity; conditions: salmonella enterica subsp. enterica serovar typhimurium
[2] = Antitumor activity against human LNCaP/AR cells xenografted in SCID male mouse assessed as tumor growth inhibition at 10 mg/kg, po administered once daily for 28 days and measured every 3 days; type: functional; conditions: time 28 day
LNCaP = assay: Antiproliferative activity against human LNCaP cells incubated for 6 days by CellTiter-Glo assay; type: functional, cell-based
[3] = Mutagenicity in Salmonella typhimurium TA98 in presence of liver S9 fraction by AMES test; type: toxicity, subcellular; conditions: salmonella enterica subsp. enterica serovar typhimurium
[4] = Mutagenicity in Escherichia coli WP2 uvrA in presence of liver S9 fraction by AMES test; type: toxicity, subcellular
[5] = molecular target: Voltage-gated inwardly rectifying potassium channel KCNH2 (Homo sapiens, UniProt Q12809); assay: Inhibition of human ERG by patch clamp assay; type: toxicity
[6] = AUC(0 to t) in Sprague-Dawley rat at 10 mg/kg, po measured upto 24 hrs by LC-MS/MS analysis; type: ADME, organism-based; conditions: in vivo
[7] = Effect on androgen sensitive organs in testosterone propionate stimulated castrated male Sprague-Dawley rat assessed as seminal vesicles weight loss at 20 mg/kg, po administered once daily for 10 days and measured 24 hrs post last dose; type: functional; conditions: time 11 day
[8] = Mutagenicity in Salmonella typhimurium TA1537 in absence of liver S9 fraction by AMES test; type: toxicity; conditions: salmonella enterica subsp. enterica serovar typhimurium
Cytochrome P450 2C19 = Cytochrome P450 2C19 (Homo sapiens, UniProt P33261); assay: Inhibition of CYP2C19 (unknown origin); type: ADME
[9] = Toxicity in SCID male mouse xenografted with human LNCaP/AR cells assessed as tolerability at 10 to 30 mg/kg, po administered once daily for 28 days and measured every 3 days; type: organism-based; conditions: in vivo, 672 h, dose 10-30 mg/kg, time 28 day
[10] = Mutagenicity in Salmonella typhimurium TA1535 in presence of liver S9 fraction by AMES test; type: toxicity, subcellular; conditions: salmonella enterica subsp. enterica serovar typhimurium
[11] = tested on: GABA-A receptor; anion channel; assay: Antagonist activity at GABA-A (unknown origin) at 40 uM relative to control; type: toxicity; conditions: human
[12] = Cmax in Sprague-Dawley rat at 10 mg/kg, po measured upto 24 hrs by LC-MS/MS analysis; type: ADME, organism-based; parameters: dose 10 mg/kg, time < 24 hrs, route po; conditions: in vivo
Androgen receptor = molecular target: T1, Androgen receptor (Homo sapiens, UniProt P10275); assay: Induction of androgen receptor degradation in human LNCaP cells incubated for 24 hrs by ELISA; type: cell-based
T1 sequence (P10275 whole entry): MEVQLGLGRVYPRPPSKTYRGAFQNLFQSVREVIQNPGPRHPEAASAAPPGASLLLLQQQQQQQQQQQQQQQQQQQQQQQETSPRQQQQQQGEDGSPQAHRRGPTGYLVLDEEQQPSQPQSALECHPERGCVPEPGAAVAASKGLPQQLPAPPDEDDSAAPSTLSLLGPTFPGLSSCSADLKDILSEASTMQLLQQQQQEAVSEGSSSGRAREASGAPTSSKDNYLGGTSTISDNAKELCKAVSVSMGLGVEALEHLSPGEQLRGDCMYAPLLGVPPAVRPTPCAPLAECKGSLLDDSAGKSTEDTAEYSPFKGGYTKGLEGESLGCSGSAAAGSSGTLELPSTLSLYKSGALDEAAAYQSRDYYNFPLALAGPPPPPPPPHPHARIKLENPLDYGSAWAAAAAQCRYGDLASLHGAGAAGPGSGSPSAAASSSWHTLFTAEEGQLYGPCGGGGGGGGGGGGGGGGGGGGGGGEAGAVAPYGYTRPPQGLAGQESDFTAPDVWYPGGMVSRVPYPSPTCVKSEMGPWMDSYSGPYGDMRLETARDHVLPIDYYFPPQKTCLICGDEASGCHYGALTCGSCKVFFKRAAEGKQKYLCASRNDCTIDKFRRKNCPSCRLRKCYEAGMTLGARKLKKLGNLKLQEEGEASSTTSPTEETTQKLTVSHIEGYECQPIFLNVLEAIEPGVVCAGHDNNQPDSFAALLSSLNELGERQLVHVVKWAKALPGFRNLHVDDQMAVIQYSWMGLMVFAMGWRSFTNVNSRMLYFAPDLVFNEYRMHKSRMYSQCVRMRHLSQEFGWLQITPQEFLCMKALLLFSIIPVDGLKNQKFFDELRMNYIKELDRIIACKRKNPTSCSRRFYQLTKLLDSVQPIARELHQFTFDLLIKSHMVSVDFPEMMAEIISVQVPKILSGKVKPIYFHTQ

Estrogen receptor = Estrogen receptor (Homo sapiens, UniProt P03372); assay: Antagonist activity at ERalpha (unknown origin)
[13] = Half life in Sprague-Dawley rat at 10 mg/kg, po measured upto 24 hrs by LC-MS/MS analysis; type: ADME, organism-based; conditions: in vivo
[14] = Mutagenicity in Salmonella typhimurium TA98 in absence of liver S9 fraction by AMES test; type: toxicity; conditions: salmonella enterica subsp. enterica serovar typhimurium
Glucocorticoid receptor = Glucocorticoid receptor (Homo sapiens, UniProt P04150); assay: Antagonist activity at GR (unknown origin)
[15] = molecular target: T2, Steroid 17-alpha-hydroxylase/17,20 lyase (Homo sapiens, UniProt P05093); assay: Inhibition of recombinant human CYP17A1 using progesterone as substrate incubated for 5 mins in presence of NADPH by LC-MS/MS analysis; type: ADME
T2 sequence (P05093 whole entry): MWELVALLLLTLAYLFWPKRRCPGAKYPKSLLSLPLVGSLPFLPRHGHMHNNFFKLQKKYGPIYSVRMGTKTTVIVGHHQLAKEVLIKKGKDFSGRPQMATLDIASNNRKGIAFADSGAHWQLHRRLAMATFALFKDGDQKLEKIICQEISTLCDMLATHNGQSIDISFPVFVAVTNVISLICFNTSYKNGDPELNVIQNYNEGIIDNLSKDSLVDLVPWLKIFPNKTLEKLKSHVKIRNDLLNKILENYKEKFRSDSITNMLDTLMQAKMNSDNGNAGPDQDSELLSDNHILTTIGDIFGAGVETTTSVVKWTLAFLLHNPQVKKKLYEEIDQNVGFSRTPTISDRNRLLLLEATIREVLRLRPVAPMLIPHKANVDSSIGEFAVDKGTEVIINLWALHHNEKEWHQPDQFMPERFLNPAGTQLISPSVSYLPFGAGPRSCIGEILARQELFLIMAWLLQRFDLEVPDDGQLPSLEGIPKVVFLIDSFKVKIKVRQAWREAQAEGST

[16] = Mutagenicity in Salmonella typhimurium TA1537 in presence of liver S9 fraction by AMES test; type: toxicity, subcellular; conditions: salmonella enterica subsp. enterica serovar typhimurium
[17] = Mutagenicity in Salmonella typhimurium TA1535 in absence of liver S9 fraction by AMES test; type: toxicity; conditions: salmonella enterica subsp. enterica serovar typhimurium
Cytochrome P450 3A4 [18] = molecular target: T3, Cytochrome P450 3A4 (Homo sapiens, UniProt P08684); assay: Inhibition of CYP3A4 (unknown origin) using midazolam substrate; type: ADME
[19] = Toxicity in SCID male mouse xenografted with human LNCaP/AR cells assessed as animal weight loss at 10 to 30 mg/kg, po administered once daily for 28 days and measured every 3 days; type: organism-based; conditions: in vivo, 672 h, dose 10-30 mg/kg, time 28 day
Cytochrome P450 3A4 [20] = molecular target: T3, Cytochrome P450 3A4; assay: Inhibition of CYP3A4 (unknown origin) using testosterone as substrate; type: ADME
Cytochrome P450 1A2 = Cytochrome P450 1A2 (Homo sapiens, UniProt P05177); assay: Inhibition of CYP1A2 (unknown origin); type: ADME
Cytochrome P450 2C9 = Cytochrome P450 2C9 (Homo sapiens, UniProt P11712); assay: Inhibition of CYP2C9 (unknown origin); type: ADME
[21] = Genotoxicity in CHL cells in absence of rat liver S9 fraction by micronucleus test; type: toxicity, cell-based, Cricetulus griseus; conditions: chinese hamster
[22] = Mutagenicity in Salmonella typhimurium TA100 in presence of liver S9 fraction by AMES test; type: toxicity, subcellular; conditions: salmonella enterica subsp. enterica serovar typhimurium
[23] = Tmax in Sprague-Dawley rat at 10 mg/kg, po measured upto 24 hrs by LC-MS/MS analysis; type: ADME, organism-based; conditions: in vivo
[24] = Toxicity in BALB/c mouse xenografted with enzalutamide resistant human LNCaP C4-2B cells assessed as body weight loss at 10 to 30 mg/kg, po administered once daily for 28 days and measured every 3 days; type: organism-based; conditions: in vivo, 672 h, dose 10-30 mg/kg, time 28 day
[25] = Genotoxicity in CHL cells in presence of rat liver S9 fraction by micronucleus test; type: toxicity, Cricetulus griseus; conditions: chinese hamster
Progesterone receptor = Progesterone receptor (Homo sapiens, UniProt P06401); assay: Antagonist activity at PR (unknown origin)
[26] = Mutagenicity in Escherichia coli WP2 uvrA in absence of liver S9 fraction by AMES test; type: toxicity
[27] = Effect on androgen sensitive organs in testosterone propionate stimulated castrated male Sprague-Dawley rat assessed as ventral prostate weight loss at 20 mg/kg, po administered once daily for 10 days and measured 24 hrs post last dose; type: functional; conditions: time 11 day
[28] = molecular target: GABA-A receptor; anion channel; assay: Antagonist activity at GABA-A (unknown origin); type: toxicity, Homo sapiens

T3 sequence (P08684 whole entry): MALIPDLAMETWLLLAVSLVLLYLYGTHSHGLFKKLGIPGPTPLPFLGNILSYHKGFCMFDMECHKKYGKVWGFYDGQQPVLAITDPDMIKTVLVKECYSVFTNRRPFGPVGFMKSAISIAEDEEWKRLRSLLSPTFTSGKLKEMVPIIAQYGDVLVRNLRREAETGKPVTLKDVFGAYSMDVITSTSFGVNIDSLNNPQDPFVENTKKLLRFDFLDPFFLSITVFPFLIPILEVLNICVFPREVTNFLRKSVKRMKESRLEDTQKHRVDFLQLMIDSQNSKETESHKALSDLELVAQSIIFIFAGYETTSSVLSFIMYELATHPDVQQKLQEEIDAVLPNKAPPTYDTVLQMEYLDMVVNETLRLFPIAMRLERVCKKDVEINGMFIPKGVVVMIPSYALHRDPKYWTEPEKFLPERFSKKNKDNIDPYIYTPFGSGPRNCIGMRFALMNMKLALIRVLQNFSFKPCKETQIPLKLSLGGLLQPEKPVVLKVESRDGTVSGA
Chain of Cytochrome P450 1A2 (P05177 whole entry): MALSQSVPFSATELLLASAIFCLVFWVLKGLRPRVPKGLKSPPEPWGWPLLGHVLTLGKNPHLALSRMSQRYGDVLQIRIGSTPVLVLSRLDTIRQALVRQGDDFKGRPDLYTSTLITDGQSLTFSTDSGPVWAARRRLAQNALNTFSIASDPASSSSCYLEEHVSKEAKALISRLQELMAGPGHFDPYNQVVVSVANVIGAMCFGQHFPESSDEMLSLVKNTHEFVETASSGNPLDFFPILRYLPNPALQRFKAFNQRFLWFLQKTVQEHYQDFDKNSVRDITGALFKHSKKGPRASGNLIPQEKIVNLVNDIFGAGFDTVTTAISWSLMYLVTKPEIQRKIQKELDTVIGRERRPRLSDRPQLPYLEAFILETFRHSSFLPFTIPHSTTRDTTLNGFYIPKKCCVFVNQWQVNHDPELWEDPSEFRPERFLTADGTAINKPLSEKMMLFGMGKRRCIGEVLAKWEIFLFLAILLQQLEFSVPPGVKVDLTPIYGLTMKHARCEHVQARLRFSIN
Chain of Cytochrome P450 2C19 (P33261 whole entry): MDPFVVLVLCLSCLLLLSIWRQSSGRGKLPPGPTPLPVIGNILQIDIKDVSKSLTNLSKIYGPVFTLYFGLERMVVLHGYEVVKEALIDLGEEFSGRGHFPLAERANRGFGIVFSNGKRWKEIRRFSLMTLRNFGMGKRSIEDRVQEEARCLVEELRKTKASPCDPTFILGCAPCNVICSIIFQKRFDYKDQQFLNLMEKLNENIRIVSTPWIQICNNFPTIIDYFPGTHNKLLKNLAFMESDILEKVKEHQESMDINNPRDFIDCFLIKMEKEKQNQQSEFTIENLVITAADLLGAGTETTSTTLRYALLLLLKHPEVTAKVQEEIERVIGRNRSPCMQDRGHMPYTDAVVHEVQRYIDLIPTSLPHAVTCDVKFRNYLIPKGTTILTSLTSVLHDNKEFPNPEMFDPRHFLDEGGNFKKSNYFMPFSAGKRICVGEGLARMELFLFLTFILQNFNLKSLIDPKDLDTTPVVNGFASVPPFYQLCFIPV
Chain of Cytochrome P450 2D6 (P10635 whole entry): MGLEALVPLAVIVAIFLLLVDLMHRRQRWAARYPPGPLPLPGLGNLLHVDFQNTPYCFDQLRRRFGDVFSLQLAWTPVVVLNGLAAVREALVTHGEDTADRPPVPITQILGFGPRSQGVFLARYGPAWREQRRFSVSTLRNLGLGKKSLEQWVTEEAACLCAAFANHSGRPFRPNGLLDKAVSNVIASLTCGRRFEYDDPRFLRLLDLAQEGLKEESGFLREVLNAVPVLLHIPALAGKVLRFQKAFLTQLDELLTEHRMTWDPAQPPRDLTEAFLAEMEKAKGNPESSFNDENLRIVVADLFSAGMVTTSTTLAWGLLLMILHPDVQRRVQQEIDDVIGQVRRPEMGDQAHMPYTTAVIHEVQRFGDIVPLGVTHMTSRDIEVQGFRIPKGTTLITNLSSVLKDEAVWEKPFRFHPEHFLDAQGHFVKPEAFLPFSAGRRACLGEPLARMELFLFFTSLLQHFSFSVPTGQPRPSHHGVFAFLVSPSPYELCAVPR
Chain of Voltage-gated inwardly rectifying potassium channel KCNH2 (Q12809 whole entry): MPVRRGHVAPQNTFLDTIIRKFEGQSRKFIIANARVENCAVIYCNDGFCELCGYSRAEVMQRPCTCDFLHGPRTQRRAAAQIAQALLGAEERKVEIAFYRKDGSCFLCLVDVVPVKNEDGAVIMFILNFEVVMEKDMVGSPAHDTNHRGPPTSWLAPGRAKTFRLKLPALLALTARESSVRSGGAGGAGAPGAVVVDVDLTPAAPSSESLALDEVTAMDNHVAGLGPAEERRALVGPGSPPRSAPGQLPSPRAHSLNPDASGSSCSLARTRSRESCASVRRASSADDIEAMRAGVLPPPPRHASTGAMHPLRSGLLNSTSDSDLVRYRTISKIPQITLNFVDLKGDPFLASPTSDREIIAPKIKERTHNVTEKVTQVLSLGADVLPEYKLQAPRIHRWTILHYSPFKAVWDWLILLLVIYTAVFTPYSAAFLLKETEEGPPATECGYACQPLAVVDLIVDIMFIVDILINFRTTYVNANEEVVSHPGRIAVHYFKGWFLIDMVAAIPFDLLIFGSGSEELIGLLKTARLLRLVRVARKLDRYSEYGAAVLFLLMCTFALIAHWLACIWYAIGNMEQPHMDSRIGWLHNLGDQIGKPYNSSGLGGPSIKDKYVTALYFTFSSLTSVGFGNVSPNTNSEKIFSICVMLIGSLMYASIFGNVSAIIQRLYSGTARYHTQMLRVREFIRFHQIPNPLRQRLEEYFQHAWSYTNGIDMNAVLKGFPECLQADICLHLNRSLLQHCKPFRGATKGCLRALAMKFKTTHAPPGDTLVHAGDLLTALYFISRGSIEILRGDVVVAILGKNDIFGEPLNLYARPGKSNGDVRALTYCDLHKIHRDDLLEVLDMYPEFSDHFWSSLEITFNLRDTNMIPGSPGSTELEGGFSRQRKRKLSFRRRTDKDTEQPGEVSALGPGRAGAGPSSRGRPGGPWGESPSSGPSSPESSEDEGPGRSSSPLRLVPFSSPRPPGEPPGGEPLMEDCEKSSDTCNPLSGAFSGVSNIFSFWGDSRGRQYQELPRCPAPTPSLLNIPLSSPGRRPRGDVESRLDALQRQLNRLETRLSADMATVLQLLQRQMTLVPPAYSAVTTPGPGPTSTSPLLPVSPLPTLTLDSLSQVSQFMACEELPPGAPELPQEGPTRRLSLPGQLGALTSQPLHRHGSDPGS
Chain of Progesterone receptor (P06401 whole entry): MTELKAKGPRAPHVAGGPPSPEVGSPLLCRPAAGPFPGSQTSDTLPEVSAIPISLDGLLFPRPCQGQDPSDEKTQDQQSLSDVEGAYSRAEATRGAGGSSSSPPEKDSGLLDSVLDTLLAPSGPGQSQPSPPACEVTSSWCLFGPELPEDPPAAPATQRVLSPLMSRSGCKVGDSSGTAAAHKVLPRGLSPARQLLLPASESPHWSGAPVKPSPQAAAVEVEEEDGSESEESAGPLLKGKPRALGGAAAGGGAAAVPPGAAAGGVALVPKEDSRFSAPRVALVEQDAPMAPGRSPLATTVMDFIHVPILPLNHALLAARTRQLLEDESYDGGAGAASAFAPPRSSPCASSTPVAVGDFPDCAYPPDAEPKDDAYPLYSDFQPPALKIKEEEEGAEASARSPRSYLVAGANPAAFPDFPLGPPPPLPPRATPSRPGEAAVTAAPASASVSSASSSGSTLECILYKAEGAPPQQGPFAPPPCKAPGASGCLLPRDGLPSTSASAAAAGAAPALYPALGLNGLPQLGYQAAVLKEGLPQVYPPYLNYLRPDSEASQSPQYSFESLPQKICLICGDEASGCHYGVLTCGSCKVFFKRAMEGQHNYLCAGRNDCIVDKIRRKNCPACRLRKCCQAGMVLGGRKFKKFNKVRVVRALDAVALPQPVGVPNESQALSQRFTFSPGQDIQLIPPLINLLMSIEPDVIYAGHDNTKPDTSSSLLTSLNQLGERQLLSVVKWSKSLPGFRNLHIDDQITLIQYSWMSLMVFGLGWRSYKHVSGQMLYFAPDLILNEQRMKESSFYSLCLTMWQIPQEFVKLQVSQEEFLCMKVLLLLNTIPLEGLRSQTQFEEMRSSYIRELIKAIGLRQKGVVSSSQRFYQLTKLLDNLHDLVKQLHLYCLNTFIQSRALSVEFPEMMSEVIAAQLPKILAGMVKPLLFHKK
Chain of Estrogen receptor (P03372 whole entry): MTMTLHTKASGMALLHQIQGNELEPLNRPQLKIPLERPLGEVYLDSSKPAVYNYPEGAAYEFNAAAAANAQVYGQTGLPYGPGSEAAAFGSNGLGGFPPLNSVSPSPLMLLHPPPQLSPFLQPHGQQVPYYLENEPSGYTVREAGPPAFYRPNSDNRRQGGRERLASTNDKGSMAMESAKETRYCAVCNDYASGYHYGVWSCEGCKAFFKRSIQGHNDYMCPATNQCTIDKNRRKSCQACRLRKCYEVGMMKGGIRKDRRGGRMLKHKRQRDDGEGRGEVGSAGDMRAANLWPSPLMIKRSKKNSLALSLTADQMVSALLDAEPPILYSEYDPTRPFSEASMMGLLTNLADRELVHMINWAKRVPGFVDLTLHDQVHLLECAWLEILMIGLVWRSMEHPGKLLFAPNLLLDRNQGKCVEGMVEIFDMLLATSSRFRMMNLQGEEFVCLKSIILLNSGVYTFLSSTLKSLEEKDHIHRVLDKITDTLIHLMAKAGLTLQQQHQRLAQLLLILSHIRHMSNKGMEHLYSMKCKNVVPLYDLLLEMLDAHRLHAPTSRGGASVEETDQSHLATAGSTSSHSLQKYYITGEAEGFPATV

## Cc1cn(C2=CCC3C4CC=C5C[C@@H](NC(=O)c6ccc(F)cc6)CC[C@]5(C)C4CC[C@]23C)cn1 (stereo not given in full)
Cytochrome P450 2D6
  IC50: 50 µM
[1]
  Activity: Non-Toxic
[2]; Homo sapiens, LNCaP/AR, 672 h, read-out: TGI
  inhibition in vivo at 10 mg/kg: 56%
LNCaP
  IC50: 0.473 µM
[3]
  Activity: Non-Toxic
[4]
  Activity: Non-Toxic
[5]
  IC50: > 40 µM
[6]
  AUCt: 68872 h/ng/mL
[7]
  Activity: -64%
[8]
  Activity: Non-Toxic
Cytochrome P450 2C19
  IC50: 4.1 µM
[9]
  Activity: Non-Toxic
[10]
  Activity: Non-Toxic
[11]
  inhibition (INH): Not Active
[12]
  Cmax: 6430 ng/mL
Androgen receptor
  EC50: 1.28 µM
Estrogen receptor
  IC50: 0.103 µM
[13]
  half-life: 3.28 h
[14]
  Activity: Non-Toxic
Glucocorticoid receptor
  IC50: > 30 µM
[15]
  IC50: 0.1 µM
[16]
  Activity: Non-Toxic
[17]
  Activity: Non-Toxic
Cytochrome P450 3A4 [18]
  IC50: 1.25 µM
[19]
  Activity: Non-Toxic
Cytochrome P450 3A4 [20]
  IC50: 0.81 µM
Cytochrome P450 1A2
  IC50: 25 µM
Cytochrome P450 2C9
  IC50: 30.8 µM
[21]
  Activity: Non-Toxic
[22]
  Activity: Non-Toxic
[23]
  Tmax: 4 h
[24]
  Activity: Non-Toxic
[25]
  Activity: Non-Toxic
Progesterone receptor
  IC50: > 30 µM
[26]
  Activity: Non-Toxic
[27]
  Activity: -65%

## CNC(=O)c1ccc(N2C(=S)N(c3ccc(C#N)c(C(F)(F)F)c3)C(=O)C2(C)C)cc1F [ENZALUTAMIDE]
[2]
  TGI: 64%
[7]
  Activity: -67%
[28]
  IC50: 4.8 µM
[27]
  Activity: -67%
